Assay results as given in patent publication US8466193B2, “Selective inhibitors of histone deacetylase” (Pharmacyclics, Inc., priority 2008, dated 2013).

What was measured:
HDAC8 = molecular target: T1, HDAC8 (Homo sapiens, UniProt Q9BY41); assay: Histone deacetylase activity, continuous trypsin-coupled assay; type: biochemical; conditions: 15 minutes preincubation; substrate acetyl-Gly-Ala-(N-acetyl-Lys)-AMC
T1 sequence (Q9BY41 1-377): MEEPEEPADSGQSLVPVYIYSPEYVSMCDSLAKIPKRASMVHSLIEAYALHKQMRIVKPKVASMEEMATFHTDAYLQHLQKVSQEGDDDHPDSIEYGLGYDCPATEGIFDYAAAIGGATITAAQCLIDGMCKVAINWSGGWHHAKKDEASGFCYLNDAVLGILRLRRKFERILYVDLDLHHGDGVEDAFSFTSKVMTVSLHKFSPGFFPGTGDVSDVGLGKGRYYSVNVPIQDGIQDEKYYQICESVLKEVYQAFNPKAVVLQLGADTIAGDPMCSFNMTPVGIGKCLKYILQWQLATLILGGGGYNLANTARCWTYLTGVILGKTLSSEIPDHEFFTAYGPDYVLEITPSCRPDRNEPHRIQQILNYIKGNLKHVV

Jurkat cells = assay: Cell proliferation assay, growth inhibition by Alamar Blue; type: cell-based; conditions: Homo sapiens, 72 h, Jurkat cells treated with compound for 3 days

With `O=C(NO)c1ccc2ccn(CCOc3ccccc3)c2c1` [Compound 316, N-hydroxy-1-(2-phenoxyethyl)-1H-indole-6-carboxamide] the IC50 (HDAC8) was < 1000 nM and the GI50 (Jurkat cells) was 2800 nM.
